{
  "source": "paper PMC7178340",
  "about": "(ACS Omega, 2020)",
  "test_system": "VEGFR",
  "test": "Cell-based competitive binding assay on U87MG cells",
  "parameters": "species or system human",
  "settings": "read-out: IC50, competitive binding, competition against [^64Cu]VEGF125–136 (74 kBq/1 mL), competitor 0-10 000 nmol/L, 37 °C, 1 h, γ counter, triplicate",
  "data": [
    {"sequence": "QKRKRKKSRYKS [VEGF125–136]", "values": [
      {"measurement": "IC50", "result": "277 ± 6.19", "unit": "nM"}
    ]}
  ]
}
